Source: ChEMBL document CHEMBL1201862, “PubChem BioAssay data set” (2004)
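Tested at 5 concentrations; 48 h exposure; 96-well plates; endpoints linearly interpolated, else capped at highest concentration. GI50: concentration for 50% inhibition of growth.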 Activity calls are given as the source filed them. No stated cut-off is given here; in the data, active = GI50 up to about 1.1 µM and inactive = higher.

What was measured:
Assay in all cases: NCI anticancer screen, dose series, 48 h
[1] = system: A498
[2] = system: A549
[3] = system: ACHN
[4] = system: BT-549
[5] = system: CAKI-1
[6] = system: CCRF-CEM
[7] = system: COLO 205
[8] = system: DU-145
[9] = system: EKVX
[10] = system: HCC 2998
[11] = system: HCT-116
[12] = system: HCT-15
[13] = system: HL-60
[14] = system: HOP-62
[15] = system: HOP-92
[16] = system: HT-29
[17] = system: Hs-578T
[18] = system: IGROV-1
[19] = system: K562
[20] = system: LOX IMVI
[21] = system: MCF7
[22] = system: MDA-MB-231
[23] = system: MDA-MB-435
[24] = system: MDA-N
[25] = system: MOLT-4
[26] = system: Malme-3M
[27] = system: NCI-H226
[28] = system: NCI-H23
[29] = system: NCI-H460
[30] = system: NCI-H522
[31] = system: NCI/ADR-RES
[32] = system: OVCAR-3
[33] = system: OVCAR-4
[34] = system: OVCAR-5
[35] = system: OVCAR-8
[36] = system: PC-3
[37] = system: RPMI-8226
[38] = system: RXF 393
[39] = system: SF-268
[40] = system: SF-295
[41] = system: SF-539
[42] = system: SK-MEL-28
[43] = system: SK-MEL-2
[44] = system: SK-MEL-5
[45] = system: SK-OV-3
[46] = system: SN12C
[47] = system: SNB-19
[48] = system: SNB-75
[49] = system: SR
[50] = system: SW-620
[51] = system: TK-10
[52] = system: U-251
[53] = system: UACC-257
[54] = system: UACC-62
[55] = system: UO-31
[56] = system: 786-0
[57] = system: KM12
[58] = system: T47D

For CCN(CC)Cc1ccc2cccnc2c1O, the GI50 [1] was 16.3 µM (inactive), the GI50 [2] was 6.34 µM (inactive) and the GI50 [3] was 2.33 µM (inactive). The GI50 [4] was 37.1 µM (inactive), the GI50 [5] was 2.47 µM (inactive) and the GI50 [6] was 0.713 µM (active). For the same compound, the GI50 [7] was 15.7 µM (inactive), the GI50 [8] was 10.8 µM (inactive) and the GI50 [9] was 2.24 µM (inactive). For the same compound, the GI50 [10] was 11.1 µM (inactive), the GI50 [11] was 3.59 µM (inactive) and the GI50 [12] was 0.365 µM. The GI50 [13] was 0.43 µM (active), the GI50 [14] was 4.5 µM (inactive) and the GI50 [15] was 11.6 µM (inactive). For the same compound, the GI50 [16] was 2.9 µM (inactive), the GI50 [17] was 25.4 µM (inactive) and the GI50 [18] was 2.77 µM (inactive). For the same compound, the GI50 [19] was 2.15 µM (inactive), the GI50 [20] was 3.84 µM (inactive) and the GI50 [21] was 3.27 µM (inactive). The GI50 [22] was 5.53 µM (inactive), the GI50 [23] was 9.42 µM (inactive) and the GI50 [24] was 10.6 µM (inactive). For the same compound, the GI50 [25] was 1.93 µM (inactive), the GI50 [26] was 2.81 µM (inactive) and the GI50 [27] was 6.08 µM (inactive). For the same compound, the GI50 [28] was 6.67 µM (inactive), the GI50 [29] was 3.82 µM (inactive) and the GI50 [30] was 0.37 µM (active). For the same compound, the GI50 [31] was 0.358 µM (active), the GI50 [32] was 2.88 µM (inactive) and the GI50 [33] was 16.4 µM (inactive). For the same compound, the GI50 [34] was 10.3 µM (inactive), the GI50 [35] was 2.03 µM (inactive) and the GI50 [36] was 6.05 µM (inactive). For the same compound, the GI50 [37] was 3.1 µM (inactive), the GI50 [38] was 93.1 µM (inactive) and the GI50 [39] was 22.6 µM (inactive). The GI50 [40] was 3.48 µM (inactive), the GI50 [41] was 6.58 µM (inactive) and the GI50 [42] was 7.35 µM (inactive). The GI50 [43] was 20.1 µM (inactive), the GI50 [44] was 3.54 µM (inactive) and the GI50 [45] was 7.01 µM (inactive). The GI50 [46] was 4.12 µM (inactive), the GI50 [47] was 18.5 µM (inactive) and the GI50 [48] was 0.577 µM (active). The GI50 [49] was 0.995 µM (active), the GI50 [50] was 3.3 µM (inactive) and the GI50 [51] was 9.64 µM (inactive). For the same compound, the GI50 [52] was 4.47 µM (inactive), the GI50 [53] was 4.91 µM (inactive) and the GI50 [54] was 5.92 µM (inactive). For the same compound, the GI50 [55] was 1.88 µM (inactive).

In the case of CO/C(=N\N=C\c1ccc(OC)cc1OC)c1ccncc1, the GI50 [56] is reported as > 10 µM (inactive), the GI50 [1] is reported as > 10 µM (inactive) and the GI50 [2] is reported as > 10 µM (inactive). The GI50 [3] was > 10 µM (inactive), the GI50 [6] was > 10 µM (inactive) and the GI50 [7] was > 10 µM (inactive). The GI50 [10] was > 10 µM (inactive), the GI50 [11] was > 10 µM (inactive) and the GI50 [12] was > 10 µM. The GI50 [13] was > 10 µM (inactive), the GI50 [14] was > 10 µM (inactive) and the GI50 [18] was > 10 µM (inactive). For the same compound, the GI50 [19] was > 10 µM (inactive), the GI50 [57] was > 10 µM (inactive) and the GI50 [20] was > 10 µM (inactive). The GI50 [21] was > 10 µM (inactive), the GI50 [25] was > 10 µM (inactive) and the GI50 [26] was > 10 µM (inactive). The GI50 [27] was > 10 µM (inactive), the GI50 [28] was > 10 µM (inactive) and the GI50 [29] was > 10 µM (inactive). The GI50 [31] was > 10 µM (inactive), the GI50 [34] was > 10 µM (inactive) and the GI50 [35] was > 10 µM (inactive). For the same compound, the GI50 [36] was > 10 µM (inactive), the GI50 [37] was > 10 µM (inactive) and the GI50 [38] was > 10 µM (inactive). For the same compound, the GI50 [39] was > 10 µM (inactive), the GI50 [40] was > 10 µM (inactive) and the GI50 [41] was > 10 µM (inactive). The GI50 [42] was > 10 µM (inactive), the GI50 [43] was > 10 µM (inactive) and the GI50 [44] was > 10 µM (inactive). For the same compound, the GI50 [45] was > 10 µM (inactive), the GI50 [46] was > 10 µM (inactive) and the GI50 [47] was > 10 µM (inactive). The GI50 [48] was > 10 µM (inactive), the GI50 [49] was > 10 µM (inactive) and the GI50 [50] was > 10 µM (inactive). For the same compound, the GI50 [58] was > 10 µM (inactive), the GI50 [51] was > 10 µM (inactive) and the GI50 [52] was > 10 µM (inactive). The GI50 [55] was > 10 µM (inactive).
